Structures can show the parent of a compound that is named as a salt.
target: T1, 5HT2 receptors (Rattus norvegicus, UniProt P14842); experiment: Apparent dissociation constants for 5HT2 receptors determined in the rat jugular vein (antagonism of contraction to serotonin); format: cell-based, rat (male Wistar); settings: antagonist incubated one hour, agonist serotonin, 37° C., read-out: -log KB (apparent dissociation constant, negative logarithm) (converted)
T1 construct: their external jugular veins and thoracic aortas dissected free of connective tissue; from tissue; host or cells: isolated external jugular vein of male Wistar rats
T1 sequence (P14842 whole entry): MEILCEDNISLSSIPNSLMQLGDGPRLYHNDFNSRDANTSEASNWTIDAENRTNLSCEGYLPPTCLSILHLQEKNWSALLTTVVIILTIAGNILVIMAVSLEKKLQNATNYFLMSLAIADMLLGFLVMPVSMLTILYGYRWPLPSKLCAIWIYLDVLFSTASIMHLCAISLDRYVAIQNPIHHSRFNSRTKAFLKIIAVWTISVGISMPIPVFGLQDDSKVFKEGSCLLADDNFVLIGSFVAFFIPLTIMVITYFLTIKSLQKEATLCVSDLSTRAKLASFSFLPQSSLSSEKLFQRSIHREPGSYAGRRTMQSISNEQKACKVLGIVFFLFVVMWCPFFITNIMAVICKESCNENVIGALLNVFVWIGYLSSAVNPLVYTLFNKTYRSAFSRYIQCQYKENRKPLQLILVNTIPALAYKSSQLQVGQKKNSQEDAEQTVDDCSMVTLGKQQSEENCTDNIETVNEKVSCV
Method: An initial optimum resting force of 1 and 4 g was applied to the jugular vein and aorta, respectively. […] Exp. Ther., 205, 400 (1978). Alpha receptor antagonist activity was evaluated in the aorta.

| SMILES | Kb |
| --- | --- |
| CCN1C[C@H](C(=O)OC2CCCCC2)C[C@@H]2c3cccc4c3c(cn4C(C)C)C[C@H]21 [C2 H5, cyclohexyl, HCl, 1-Isopropyl-6-ethyl-8β-cyclohexyloxycarbonylergoline] | 15.5 nM |
| CC(C)n1cc2c3c(cccc31)[C@H]1C[C@@H](C(=O)OC3CCC(=O)CC3)CN(C)[C@@H]1C2 [CH3,4-oxocyclohexyl, maleate, 4-Oxocyclohexyl 1-isopropyl-9,10-dihydrolysergate] | 0.0977 nM |
| CC(C)n1cc2c3c(cccc31)[C@H]1C[C@@H](C(=O)OC3CCCCC3)CN(C)[C@@H]1C2 [CH3, cyclohexyl, maleate, cyclohexyl 1-isopropyl-9,10-dihydrolysergate maleate] | 2.14 nM |
| CCCN1C[C@H](C(=O)OC2CCCCC2)C[C@@H]2c3cccc4c3c(cn4C(C)C)C[C@H]21 [n-C3 H7, cyclohexyl, HCl] | 85.1 nM |
| CCCCN1C[C@H](C(=O)OC2CCCCC2)C[C@@H]2c3cccc4c3c(cn4C(C)C)C[C@H]21 [n-C4 H9, cyclohexyl, HCl, 1-Isopropyl-6-n-butyl-8β-cyclohexyloxycarbonyl ergoline hydrochloride] | 39.8 nM |

test system: 5HT2 receptors; experiment: not given; settings: mediated by 5HT2 receptors; Cohen I; cited from earlier work

| SMILES | antagonism of vascular contraction to serotonin |
| --- | --- |
| CC(O)C(C)OC(=O)[C@@H]1C[C@@H]2c3cccc4c3c(cn4C(C)C)C[C@H]2N(C)C1 (stereo partly drawn) [LY53857, 1-isopropyl-6-methyl-8β-(1-methyl-2-hydroxy)propoxycarbonyl-5R-ergoline] | potent antagonist |
